The supplement of paper PMC11208160

assay: recombinant UMI read abundance after kanamycin selection (control-corrected) (log10(CPM+1)); higher = more efficient recombination; extreme values may be limits of the assay; sequences stand for … in AGTGCAGAGAAAATCGGCCAGTTTTCTCTGCCTGCAGTCCGCATGCCGTGGGACCCCTTGGGTTCTAACCTGTTGCCTAGATTTATGCAGCGGACTGCCTTTCTCCCAAAGTGATAAACCGG…AGGTTGGTTTCACT; site = the 11-nt donor
Method: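 Pooled E. coli donor-specificity screen for the IS621 bridge recombinase. Each library member carries a reprogrammed 11-nt donor and a full-length LE bridge RNA expressed in cis from the natural promoter, with a paired donor-binding loop (8-nt LDG + 4-nt RDG) and a target-binding loop fixed to T5. It is co-electroporated with a T5 target plasmid; recombinase is induced with 0.07 mM IPTG and recombinants are selected on kanamycin. UMIs are counted as CPM, averaged over two biological replicates and corrected by the unselected control. Molecule = full bridge RNA written as DNA, built from the T5 scaffold: LDG = donor specificity nt 1-8, RDG = reverse complement of nt 8-11.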
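Note: IS621 bridge recombinase in Escherichia coli cells against a fixed T5 target plasmid.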

Sequence	recombinant UMI read abundance (log10)
ACAGTATCATGGACCGGTTTTCCCGGTAATCCGTATTTGCC (site ACAGTATCTTG)	1.9
ACAGTATCATGGACCGGTTTTCCCGGTAATCCGTATTTGTA (site ACAGTATCTTA)	3.08
ACAGTATCATGGACCGGTTTTCCCGGTAATCCGTATTTGTA (site ACAGTATCTTC)	2.02
ACAGTATCATGGACCGGTTTTCCCGGTAATCCGTATTTGTA (site ACAGTATCTTG)	2.51
ACAGTATCATGGACCGGTTTTCCCGGTAATCCGTATTTGTA (site ACAGTATCTTT)	2.44
ACAGTGTCATGGACCGGTTTTCCCGGTAATCCGTATTTGAA (site ACAGTATCTTG)	1.04
ACAGTGTCATGGACCGGTTTTCCCGGTAATCCGTATTTGAA (site ACAGTGTCTTT)	3.19
ACAGTTCCATGGACCGGTTTTCCCGGTAATCCGTATTTGCC (site ACAGTTCCTGG)	0
ACATCAACATGGACCGGTTTTCCCGGTAATCCGTATTTGTC (site ACATCAACTGA)	1.34
ACATCAACATGGACCGGTTTTCCCGGTAATCCGTATTTGTG (site ACATCAACTCA)	0.878
ACATCAACATGGACCGGTTTTCCCGGTAATCCGTATTTGTG (site ACATCCACTCA)	0.0219
ACATCAACATGGACCGGTTTTCCCGGTAATCCGTATTTGTG (site ACATCGACTCA)	0.0265
ACATCAACATGGACCGGTTTTCCCGGTAATCCGTATTTGTG (site ACATCTACTCA)	0.206
ACATCCTCATGGACCGGTTTTCCCGGTAATCCGTATTTGTC (site ACATCCTCTGA)	2.8
ACATGTACATGGACCGGTTTTCCCGGTAATCCGTATTTGAC (site ACATGTACTGT)	1.76
ACATTATCATGGACCGGTTTTCCCGGTAATCCGTATTTGCA (site ACAATATCTTG)	1.92

Sequence	recombinant UMI read abundance (log10)
ACATTATCATGGACCGGTTTTCCCGGTAATCCGTATTTGCA (site ACACTATCTTG)	2.24
ACATTATCATGGACCGGTTTTCCCGGTAATCCGTATTTGCA (site ACAGTATCTTG)	1.69
ACATTATCATGGACCGGTTTTCCCGGTAATCCGTATTTGCA (site ACATTATCTTG)	2.01
ACCAACCCATGGACCGGTTTTCCCGGTAATCCGTATTTGCG (site ACCAACCCTCG)	0
ACCAAGACATGGACCGGTTTTCCCGGTAATCCGTATTTGGG (site ACCAAGACTCC)	0.0181
ACCAAGACATGGACCGGTTTTCCCGGTAATCCGTATTTGGG (site ACCCAGACTCC)	0.0318
ACCAAGACATGGACCGGTTTTCCCGGTAATCCGTATTTGGG (site ACCGAGACTCC)	0.0218
ACCAAGACATGGACCGGTTTTCCCGGTAATCCGTATTTGGG (site ACCTAGACTCC)	0.0189
ACCAGAACATGGACCGGTTTTCCCGGTAATCCGTATTTGAA (site ACCAGAACTTT)	1.72
ACCAGTCCATGGACCGGTTTTCCCGGTAATCCGTATTTGCG (site GATGCATCTTA)	0
ACCAGTGCATGGACCGGTTTTCCCGGTAATCCGTATTTGGT (site ACAAGTGCTAC)	0.0927
ACCAGTGCATGGACCGGTTTTCCCGGTAATCCGTATTTGGT (site ACCAGTGCTAC)	0.472
ACCAGTGCATGGACCGGTTTTCCCGGTAATCCGTATTTGGT (site ACGAGTGCTAC)	0.0125
ACCAGTGCATGGACCGGTTTTCCCGGTAATCCGTATTTGGT (site ACTAGTGCTAC)	0.19
ACCCAAGCATGGACCGGTTTTCCCGGTAATCCGTATTTGAG (site AACCAAGCTCT)	0.712
ACCCAAGCATGGACCGGTTTTCCCGGTAATCCGTATTTGAG (site ACCCAAGCTCT)	1.97
